Consider one compound from patent EP0247464A1, “New quinolone compounds and a process for the preparation thereof” (FUJISAWA PHARMACEUTICAL CO., LTD., priority 1986, dated 1987).

The subject of data set [1] is Mycoplasma pulmonis PG-22. The experiment in a line: Minimal Inhibitory Concentration (MIC), antimycoplasmal activity, agar dilution method. The settings on record: PG22, 37°C for 3 to 4 days, 5 per cent carbon dioxide, lowest concentration completely inhibiting colony growth. In kind it is cell-based. The method, then:
MICs of test compound were obtained by the agar dilution method.
Agar plates contained two-fold decremental dilutions of the test compound, ranging from 0.05 to 100 pg/ml. The inoculum (0.01 ml, containing approximately 10^5 CFU/ml of liquid medium which had been cultured at 37°C for 3 days) was plated on moisture-free media surfaces. Plates were placed in a humidified atmosphere of 5 per cent carbon dioxide and 95 per cent air, and incubated at 37°C for 3 to 4 days. The colonies grown on the plate were observed under a low microscopic magnification (x60).
(In general: Agar dilution tests growth on a series of plates holding different concentrations.)

For data set [2], the system named is Vibrio anguillarum NP-1. The experiment in a line: Minimal Inhibitory Concentration (MIC), antibacterial activity against fish-disease strain. Type of data set: cell-based. The settings on record: NP1, 2.5% sodium chloride added Heart Infusion Agar, 20 hours incubation at 25°C. The method, then: MICs againstvibrio anguillarum originated in fish diseases were obtained by the following method. An overnight culture broth of each strain was diluted 10-fold (approximately 10^6 cells/ml) and was stamped on 2.5% sodium chloride added Heart Infusion Agar containing graded concentrations of the test compounds, and MICs were expressed in terms of pg/ml after 20 hours incubation at 25°C.

Data set [3] in a line: Acute toxicity in mice. The settings on record: 100 mg/kg injected into lateral vein, ICR-strain male mouse, 5 mice, observed for 7 days. Type of data set: in vivo. On the procedure:
The test compound (16 mg) was dissolved in 1N NaOH (0.1 ml) and steril distilled water (3.9 ml).

Broadly, the MIC is the lowest concentration that inhibits growth of the organism.

Structures are written as SMILES. ≈ marks a conversion by molar mass, not a printed value.

Turning to `O=C(O)c1cn(C2CC2)c2c(F)c(N3CCNCC3)c(F)c(F)c2c1=O` [compound (I-d), 1-Cyclopropyl-5,6,8-trifluoro-7-(1-piperazinyl)-4-quinolone-3-carboxylic acid], the MIC in data set [1] and in data set [2] was 0.1 mg/L (≈ 0.272 µM) in each case. Also, the “Survivals / test mice” value in data set [3] is 5 / 5.
